# Experiment: Human HepG2 cell viability assay in 384 well format
# Type: toxicity, cell-based
# Set-up: dose 125 nL, time 70.5 hour; cytotoxicity at 70.5 h: concentration not given beside the values
# Details: HepG2 cells, read-out: Inhibition
row,SMILES,cytotoxicity at 70.5 h
1,CN(C)C(=O)c1nc(-c2ccc(S(C)(=O)=O)cc2)c2ccccn12,-12.8%
2,O=C(N1CCCCC1)N1CCN(c2ccc(Cl)nn2)C(=O)C1,-5.68%
3,Cc1ccc(CCN2CCCC23Cc2ccccc2CNC3=O)cc1 (configuration not stated),-4.38%
4,Cc1cc(C)c(CN2CCCC23Cc2ccccc2CNC3=O)c(C)c1 (configuration not stated),-9.48%
5,CS(=O)(=O)N1Cc2ccccc2CC2(CCN(Cc3ccccn3)C2)C1 (configuration not stated),-10.1%
6,CC(C)C(=O)N1Cc2ccccc2CC2(CCCN2C)C1 (configuration not stated),-10.9%
7,CN1CCCCC12Cc1ccccc1CN(C(=O)c1ccccc1)C2 (configuration not stated),-5.36%
8,O=C(c1ccc(Cl)cc1)N1CCC2(C1)C(=O)Nc1ccccc12 (configuration not stated),-7.9%
9,CC(=O)N1CCC2(CC1)CC(NS(C)(=O)=O)c1ccccc1O2 (configuration not stated),-4.04%
10,CN1Cc2ccccc2NC(=O)C12CCNC2 (configuration not stated),-2.63%
11,N#Cc1ccc(CN2CCCC3(Cc4ccccc4CNC3=O)C2)cc1 (configuration not stated),31.4%
12,O=C1NCc2ccccc2CC12CCCN(Cc1ccsc1)C2 (configuration not stated),2.74%
13,O=C1NCc2ccccc2CC12CCN(Cc1c(F)cccc1Cl)C2 (configuration not stated),-5.69%
14,O=C(NCC1CC1)c1cc(C2CC2)nc2onc(C3CCCNC3)c12 (configuration not stated),-7.5%
15,CC(C)CNC(=O)c1cc(C2CC2)nc2onc(C3CCNCC3)c12,-3.04%
16,O=C(c1ccc(Cl)cc1)N1CCC(N2CCCOC2=O)CC1,-6.91%
17,O=C(C1CCCCC1)N1CCC2(COc3ncccc3S(=O)(=O)N2)C1 (configuration not stated),-4.42%
18,O=C(NC1CCCCC1)N1CCCC1c1nnc2n1CCNC2 (configuration not stated),19.4%
19,O=C(N1CCCCC1)N1CCCC1c1nnc2n1CCNC2 (configuration not stated),17.6%

row,SMILES,cytotoxicity at 70.5 h
1,CN1CCC2(Cc3ccccc3CN(C(=O)c3ccc(Cl)cc3)C2)C1 (configuration not stated),35.9%
2,CN1CCC2(Cc3ccccc3CN(C(=O)CCN)C2)C1 (configuration not stated),27.3%
3,O=C1Nc2ccccc2CC12CCCN2Cc1ccccn1 (configuration not stated),29.1%
4,CC(C)NC(=O)NCc1nnc2n1C(C(=O)N(C)C)CC2 (configuration not stated),-3.97%
5,CC(C)NC(=O)C1CCc2nnc(CNC(=O)C3CC3)n21 (configuration not stated),-6.43%
6,CN1CC(=O)N(C2CCC2)Cc2c(NC3CCNCC3)ncnc21,-3.78%
7,CN1CC(=O)N(C2CCNC2)Cc2c(NC3CCCC3)ncnc21 (configuration not stated),-5.19%
8,CN1CC(=O)N(C2CCCNC2)Cc2c(NC3CCC3)ncnc21 (configuration not stated),-3.06%
9,CN(Cc1nc2ccccc2[nH]1)C(=O)CN(C)c1ccc(Cl)cn1,7.7%
10,NC(=O)C(NC1CCN(Cc2ccc(F)cc2)CC1)c1ccccc1 (configuration not stated),-13.1%
11,COc1ccccc1C(NC(=O)CN(C)C(C)C)c1noc(C)n1 (configuration not stated),-2.25%
12,CC(C)(CNC(=O)c1ccco1)NC(=O)OC(C)(C)C,-12.7%
13,CC(C)(CNC(=O)c1ccc(Cl)o1)NC(=O)OC(C)(C)C,22.2%
14,Cn1cc(N2CCN(c3ccc(C#N)c(Cl)c3)CC2=O)cn1,-14.1%
15,Cn1ccc(N2CCCC(NC(=O)c3ccsc3)C2=O)n1 (configuration not stated),20.9%
16,NC(=O)CCn1ccc(NCc2cc(F)ccc2Br)n1,-10.5%
17,O=C(O)c1cnc(OCC2CC2)c(Cl)c1,-0.42%
18,Cn1cc(N2CCN(c3ccc(C#N)cc3Br)CC2=O)cn1,-4.85%
19,CC(CO)NC(=O)Nc1ccc(CC#N)cc1 (configuration not stated),-4.42%

row,SMILES,cytotoxicity at 70.5 h
1,CCC(C)(CC(=O)OC)NCc1noc(C)n1 (configuration not stated),26.6%
2,CSCCC(=O)N1CCN(CC(C)O)CC1 (configuration not stated),-2.96%
3,CCN(Cc1ncc(C(C)(C)C)o1)Cc1ccccc1C,-1.58%
4,CCN(CC(C)O)C(=O)Nc1cnn(CCOC)c1 (configuration not stated),6.07%
5,COCCN(Cc1ccc(C)o1)C(=O)Nc1nnc(C(F)F)s1,-7.33%
6,CCN1CCN2CCCN(S(=O)(=O)c3cccc(F)c3)C2C1=O (configuration not stated),-8.84%
7,CS(=O)(=O)Cc1cccc(CNS(=O)(=O)c2ccc(F)c(F)c2)c1,-8.75%
8,Cc1ccc(F)c(S(=O)(=O)NCc2cccc(CS(C)(=O)=O)c2)c1,-18%
9,Cc1nn(C)c(C)c1C(=O)N1CCN(C(=O)CCC2CCCCC2)CC1,-13.4%
10,COC(=O)CC(NC(=O)CCn1cccn1)c1ccc(C)cc1 (configuration not stated),-0.705%
11,Cc1nc(C(=O)N(CC(=O)N(C)C)CC(F)(F)F)c2ccccn12,-4.52%
12,CNCc1ccc([C@@H]2CN(C)C[C@H]2C(N)=O)cc1,19.9%
13,CNCc1ccc([C@@H]2CN(C(C)=O)C[C@H]2C(N)=O)cc1,-7.99%
14,Cc1noc2nc(C3CCN(Cc4cccnc4)CC3)cc(C(F)F)c12,-3.96%
15,O=C(Nc1cccc(C(=O)OCC2CCCN2)c1)c1ccoc1 (configuration not stated),5.78%
16,O=C(OCC1CCCN1)c1cccc(NC(=O)c2ccco2)c1 (configuration not stated),-14.8%
17,Cc1occc1C(=O)Nc1cccc(C(=O)OCC2CCCN2)c1 (configuration not stated),23.7%
18,Cc1nc[nH]c1CN(Cc1ccccc1)C1CC(C)(C)NC(C)(C)C1,4.53%
19,Cc1cccc(CN2CCC(c3csc4nccn34)CC2)n1,0.645%

# From ChEMBL document CHEMBL3507680, “University of Dundee, Gates Library screen for HepG2 cell viability”
